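In this assay, cells in 96-well plates receive the compound at five concentrations for 48 hours. Endpoints are linearly interpolated between the surrounding concentrations. TGI denotes the concentration required for complete inhibition of growth.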
Key:
Assay in all cases: inhibition of tumour cell growth, NCI panel, 48 h
NCI-H460 lung = test system: NCI-H460 lung
SK-MEL-2 melanoma = test system: SK-MEL-2 melanoma
BT-549 breast = test system: BT-549 breast
CAKI-1 renal = test system: CAKI-1 renal
SNB-75 CNS = test system: SNB-75 CNS
MDA-MB-435 = test system: MDA-MB-435
HOP-62 NSCLC = test system: HOP-62 NSCLC
LOX IMVI melanoma = test system: LOX IMVI melanoma
KM12 colon = test system: KM12 colon
UO-31 renal = test system: UO-31 renal
NCI-H23 lung = test system: NCI-H23 lung
RPMI-8226 leukemia = test system: RPMI-8226 leukemia
EKVX NSCLC = test system: EKVX NSCLC
SN12C renal = test system: SN12C renal
OVCAR-4 ovarian = test system: OVCAR-4 ovarian
A549 NSCLC = test system: A549 NSCLC
SF-295 CNS = test system: SF-295 CNS
CCRF-CEM leukemia = test system: CCRF-CEM leukemia
HCT-116 colon = test system: HCT-116 colon
RXF 393 renal = test system: RXF 393 renal

Structure (SMILES)	TGI (NCI-H460 lung)	TGI (SK-MEL-2 melanoma)	TGI (BT-549 breast)	TGI (CAKI-1 renal)	TGI (SNB-75 CNS)	TGI (MDA-MB-435)	TGI (HOP-62 NSCLC)	TGI (LOX IMVI melanoma)	TGI (KM12 colon)	TGI (UO-31 renal)	TGI (NCI-H23 lung)	TGI (RPMI-8226 leukemia)	TGI (EKVX NSCLC)	TGI (SN12C renal)	TGI (OVCAR-4 ovarian)	TGI (A549 NSCLC)	TGI (SF-295 CNS)	TGI (CCRF-CEM leukemia)	TGI (HCT-116 colon)	TGI (RXF 393 renal)
c1ccc(C2=NCCN2)c(C2=NCCN2)c1	> 100 µM	> 100 µM	> 100 µM	> 100 µM	> 100 µM	> 100 µM	> 100 µM	> 100 µM	> 100 µM	> 100 µM	> 100 µM	> 100 µM	> 100 µM	> 100 µM	> 100 µM	> 100 µM	> 100 µM	> 100 µM	> 100 µM	> 100 µM
NC(N)=NS(=O)(=O)c1ccc(NNc2c3ccccc3nc3c(C(=O)Nc4ccc(S(=O)(=O)N=C(N)N)cc4)cccc23)cc1	> 100 µM	> 100 µM	> 100 µM	> 100 µM	> 100 µM	> 100 µM	> 100 µM	> 100 µM	> 100 µM	> 100 µM	> 100 µM	> 100 µM	95.8 µM	> 100 µM	> 100 µM	> 100 µM	> 100 µM	60.1 µM	> 100 µM	> 100 µM
O=C(c1c(F)c(F)c(F)c(F)c1F)N1CCN(C(=O)c2c(F)c(F)c(F)c(F)c2F)C1=S	25.6 µM	7.33 µM	27.8 µM	6.89 µM	23 µM	11.9 µM	29.1 µM	6.57 µM	18.8 µM	10 µM	20.1 µM	> 100 µM	32.9 µM	24.5 µM	10.4 µM	29.5 µM	28.5 µM	> 100 µM	7.72 µM	9.27 µM
CCCCCCc1ccc(C(=O)NO)cc1	72.3 µM	> 100 µM	> 100 µM	84.3 µM	> 100 µM	> 100 µM	> 100 µM	76.9 µM	> 100 µM	48.7 µM	> 100 µM	56.8 µM	> 100 µM	64.5 µM	84.4 µM	> 100 µM	> 100 µM	52.8 µM	> 100 µM	> 100 µM
NC(=O)c1cc2ccc(O)cc2o/c1=N/NC(=O)c1ccccc1	> 100 µM	91.8 µM	> 100 µM	> 100 µM	> 100 µM	> 100 µM	> 100 µM	> 100 µM	> 100 µM	> 100 µM	> 100 µM	> 100 µM	> 100 µM	> 100 µM	> 100 µM	> 100 µM	> 100 µM	> 100 µM	> 100 µM	> 100 µM
COC(=O)c1ccccc1C1CN=NC12Cc1ccccc1C2=O (stereo not drawn)	> 100 µM	> 100 µM	> 100 µM	> 100 µM	> 100 µM	> 100 µM	> 100 µM	> 100 µM	> 100 µM	> 100 µM	> 100 µM	> 100 µM	> 100 µM	> 100 µM	> 100 µM	> 100 µM	> 100 µM	> 100 µM	> 100 µM	> 100 µM
O=C1c2ccccc2CN1c1ccc(OCCN2CCCCC2)cc1	> 10 µM	> 10 µM	> 10 µM	> 10 µM	> 10 µM	> 10 µM	> 10 µM	> 10 µM	> 10 µM	> 10 µM	> 10 µM	> 10 µM	> 10 µM	> 10 µM	> 10 µM	> 10 µM	> 10 µM	> 10 µM	> 10 µM	> 10 µM
COc1c(OC(C)C)c(OC(C)C)c2oc(=O)n3c2c1C(c1ccccc1-n1c(C)ccc1C)C=C3 (stereo not drawn)	> 100 µM	> 100 µM	> 100 µM	> 100 µM	> 100 µM	> 100 µM	> 100 µM	59 µM	> 100 µM	> 100 µM	> 100 µM	> 100 µM	95.4 µM	> 100 µM	> 100 µM	> 100 µM	> 100 µM	> 100 µM	> 100 µM	62.5 µM
COc1cc(/C=C2\N=C(c3ccccc3)N(c3nc4cc(C)c(C)cc4s3)C2=O)ccc1O	> 100 µM	> 100 µM	> 100 µM	> 100 µM	> 100 µM	52.1 µM	> 100 µM	> 100 µM	> 100 µM	> 100 µM	–	> 100 µM	> 100 µM	78.9 µM	> 100 µM	> 100 µM	> 100 µM	39.1 µM	61.8 µM	82.2 µM
CCN(CC)c1ccc2cc(C(N)=S)c(=N)oc2c1	> 100 µM	> 100 µM	> 100 µM	> 100 µM	> 100 µM	> 100 µM	> 100 µM	> 100 µM	> 100 µM	> 100 µM	–	> 100 µM	> 100 µM	> 100 µM	> 100 µM	> 100 µM	> 100 µM	> 100 µM	> 100 µM	> 100 µM

Source: PubChem BioAssay (NCI)
